# Results published in PubChem BioAssay (NCI).
#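 Assay format: 96-well plates, 48-hour exposure. TGI marks complete inhibition of growth.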 Where a SMILES comes first, the peptide text is derived from it. The star is where a group is joined. Boc = CC(C)(C)OC(=O)*; OtBu = CC(C)(C)O*
# Experiments:
# Assay in all cases: NCI anticancer screen, dose series, 48 h
# [1] = system: MDA-N
# [2] = system: NCI-H522 lung
# [3] = system: NCI-H23 lung
# [4] = system: COLO 205 colon
# [5] = system: NCI-H460 lung
# [6] = system: SW-620 colon
# [7] = system: OVCAR-5 ovarian
# [8] = system: K-562 leukemia
# [9] = system: RPMI-8226 leukemia
# [10] = system: HS 578T breast
SMILES,TGI [1] [µM],TGI [2] [µM],TGI [3] [µM],TGI [4] [µM],TGI [5] [µM],TGI [6] [µM],TGI [7] [µM],TGI [8] [µM],TGI [9] [µM],TGI [10] [µM]
CC(C)C1CC(CO)(CNc2nc(N)nc(Cl)c2C=O)C1 (stereo not given),9.31,1.14,4.64,28,31.9,21.8,96.9,6.15,> 100,31.3
CC(=O)OCCn1c(Cc2ccc(Cl)cc2)nn(C(C)=O)c1=O,> 100,> 100,> 100,> 100,> 100,> 100,> 100,> 100,> 100,> 100
O=c1oc2cc(O)ccc2c(O)c1C(c1ccc(/C=C/c2ccccc2)cc1)c1c(O)c2ccc(O)cc2oc1=O,> 100,> 100,> 100,> 100,> 100,> 100,> 100,> 100,> 100,> 100
COc1ccc2c(c1)SC1=Nc3sc4cc(OC)ccc4[n+]3CN12,> 100,8.5,> 100,11.6,72.8,> 100,> 100,> 100,88.4,> 100
COc1cc(CCNC2=CC(=O)c3ncccc3C2=O)ccc1O,2.72,10.3,11.8,32.6,2.71,12.1,22.7,17.7,30.5,15.6
CCOP(=O)(OCC)/C(F)=C/c1ccc(F)cc1,> 100,> 100,> 100,> 100,> 100,> 100,> 100,> 100,> 100,> 100
CC(C)(C)OC(=O)CC(NC(=O)OC(C)(C)C)C(=O)NC(Cc1ccccc1)C(N)=O (stereo not given) (Boc-Asp(OtBu)-Phe-NH2; configuration not given here),> 100,> 100,> 100,> 100,> 100,> 100,> 100,> 100,> 100,> 100
Cc1ccc(Nc2nc3ccccc3nc2NS(=O)(=O)c2ccc(N)cc2)cc1,> 100,> 100,16.2,> 100,> 100,> 100,> 100,> 100,> 100,> 100
